Read-outs that look alike come from different tables or passages of the source. One block for each compound: values may come before it.
How the values were obtained:
[1] = cited from earlier work; for time for degradation in water of at least 50%: pH 9
[2] = pH 7; cited from earlier work
[3] = Example 2: storage stability of standard formulation (pH 6.05), one year at 20-25° C.; type: physicochemical; conditions: Example 2 formulation; for Concentration at t = 0: pH 6.05, before storage; for % loss: pH 6.05, one year at 20-25° C.; for Concentration at t = 1 year and 20-25 ° C.: pH 6.05, stored one year at 20-25° C.
Method: Another standard formulation containing the follow active ingredients was created as follows:
The formulation was stored for one year at 20-25° C. The pH of 6.05 providing excellent chemical stability for picarbutrazox as well at the other active ingredients.

[4] = Example 7: picarbutrazox and thiamethoxam stability relative to pH, 54° C. for 2 weeks; type: physicochemical; conditions: for Change in thiamethoxam concentration after storage at 54° C. for 2 weeks: Example 7 formulation (20.8% w/w thiamethoxam); for Change in picarbutrazox concentration after storage at 54° C. for 2 weeks: Example 7 formulation (0.42% w/w picarbutrazox)
Description: Two standard formulations containing the follow active ingredients were created. The standard formulations contained customary formulation components and were then pH adjusted via the addition of either Sodium Hydroxide (NaOH) or Phosphoric Acid (H3PO4) to obtain a range of pH's.

[5] = Example 8: picarbutrazox and thiamethoxam stability relative to pH, 1 month at 50° C.; type: physicochemical; conditions: for Change in thiamethoxam concentration after storage for 1 month at 50° C.: Example 8 formulation (20.8% w/w thiamethoxam); for Change in picarbutrazox concentration after storage for 1 month at 50° C.: Example 8 formulation (0.42% w/w picarbutrazox)
Description: Four standard formulations containing the follow active ingredients were created. The standard formulations contained customary formulation components and were then pH adjusted via the addition of either Sodium Hydroxide (NaOH) or Phosphoric Acid (H3PO4) to obtain a range of pH's.

[6] = Example 9: storage stability of 43.3% w/w picarbutrazox formulation; type: physicochemical; conditions: Example 9 formulation, picarbutrazox only AI at 43.3% w/w, Initial pH 7.2
Method: A standard formulation was prepared which contained picarbutrazox as the only Al at 43.3% w/w concentration. The initial pH was pH 7.2.

[7] = Example 10: storage stability of mixtures of 36% w/w and 0.8% w/w PCBX formulations, 2 weeks at 54 C.; type: physicochemical; conditions: for Actual Measured % w/w PCBX in the combined mixture: before storage
Method: A standard formulation was prepared which contained picarbutrazox at 36% w/w concentration. This was then mixed in differing ratios with a standard formulation which contained picarbutrazox at 0.8% w/w concentration. The mixtures were stored for 2 weeks at 54 C.

[8] = 0% of 36% w/w PCBX formulation + 100% of 0.8% w/w PCBX formulation
[9] = mixture 30% of 36% w/w PCBX formulation + 70% of 0.8% w/w PCBX formulation
[10] = mixture 60% of 36% w/w PCBX formulation + 40% of 0.8% w/w PCBX formulation
[11] = mixture 90% of 36% w/w PCBX formulation + 10% of 0.8% w/w PCBX formulation

Compound: CNC(=O)c1cc(C#N)cc(C)c1NC(=O)c1cc(Br)nn1-c1ncccc1Cl [cyantraniliprole]
Hydrolysis DT50 ([1]; pH 4, 20° C.): 261 days | Hydrolysis DT50 ([1]; pH 7, 20° C.): 61 days | Hydrolysis DT50 ([1]; pH 9, 20° C.): 1.8 days | time for degradation in water of at least 50% [1]: less than 30 days

Compound: CNC(=O)c1cc(Cl)cc(C)c1NC(=O)c1cc(Br)nn1-c1ncccc1Cl [chlorantraniliprole]
Aqueous photolysis DT50 [2]: (25° C.). Aqueous photolysis DT50 0.37 d (pH 7). | Hydrolysis ([1]; pH 4-7 (25° C.)): stable | Hydrolysis DT50 ([1]; pH 9, 25° C.): 10 days | time for degradation in water of at least 50% [1]: less than 30 days

Compound: CN1COCN(Cc2cnc(Cl)s2)/C1=N\[N+](=O)[O-] [Thiamethoxam]
Concentration at t = 0 [3]: 19.5 % w/w | % loss [3]: 2% | Concentration at t = 1 year and 20-25 ° C. [3]: 19.1 % w/w | Change in thiamethoxam concentration after storage at 54° C. for 2 weeks ([4]; Initial pH 7.2): −1% | Change in thiamethoxam concentration after storage at 54° C. for 2 weeks ([4]; Initial pH 8.0): −3% | Hydrolysis ([1]; pH 1, 5, 7 (25° C.)): stable | Hydrolysis DT50 ([1]; pH 9, 25° C.): 7.3 to 15.6 days | Change in thiamethoxam concentration after storage for 1 month at 50° C. ([5]; Initial pH 5.7): −1% | Change in thiamethoxam concentration after storage for 1 month at 50° C. ([5]; Initial pH 6.0): −1% | Change in thiamethoxam concentration after storage for 1 month at 50° C. ([5]; Initial pH 7.2): −5% | Change in thiamethoxam concentration after storage for 1 month at 50° C. ([5]; Initial pH 8.0): −7%

Concentration at t = 0 [3]: 0.974 % w/w | % loss [3]: 0% | Concentration at t = 1 year and 20-25 ° C. [3]: 0.970 % w/w
Compound: Cn1cc(C(=O)Nc2ccccc2C2CC2C2CC2)c(C(F)F)n1 (centres unmarked) [Sedaxane]

Change in picarbutrazox concentration after storage for 1 month at 50° C. [6]: −1% | Change in picarbutrazox concentration after storage for 2 weeks at 54° C. [6]: −2% | Concentration at t = 0 [3]: 0.365 % w/w | % loss [3]: 0% | Concentration at t = 1 year and 20-25 ° C. [3]: 0.367 % w/w | Change in picarbutrazox concentration after storage at 54° C. for 2 weeks ([4]; Initial pH 7.2): −10% | Change in picarbutrazox concentration after storage at 54° C. for 2 weeks ([4]; Initial pH 8.0): −6% | Change in picarbutrazox concentration after storage for 1 month at 50° C. ([5]; Initial pH 5.7): −16% | Change in picarbutrazox concentration after storage for 1 month at 50° C. ([5]; Initial pH 6.0): −16% | Change in picarbutrazox concentration after storage for 1 month at 50° C. ([5]; Initial pH 7.2): −13% | Change in picarbutrazox concentration after storage for 1 month at 50° C. ([5]; Initial pH 8.0): −5% | Change in PCBX concentration after storage for 2 weeks at 54 C. [7, 8]: 11% | Actual Measured % w/w PCBX in the combined mixture [7, 8]: 0.85% w/w | Change in PCBX concentration after storage for 2 weeks at 54 C. [7, 9]: 0% | Actual Measured % w/w PCBX in the combined mixture [7, 9]: 11.4% w/w | Change in PCBX concentration after storage for 2 weeks at 54 C. [7, 10]: 0% | Actual Measured % w/w PCBX in the combined mixture [7, 10]: 21.8% w/w | Change in PCBX concentration after storage for 2 weeks at 54 C. [7, 11]: 0% | Actual Measured % w/w PCBX in the combined mixture [7, 11]: 32.6% w/w
Compound: Cn1nnnc1/C(=N\OCc1cccc(NC(=O)OC(C)(C)C)n1)c1ccccc1 [picarbutrazox, 1,1-Dimethylethyl N-(6-((((Z)-((1-methyl-1H-tetrazol-5-yl)phenylmethylene)amino)oxy)methyl)-2-pyridinyl)carbamate]

Compound: COCC(=O)N(c1c(C)cccc1C)[C@H](C)C(=O)OC [Mefenoxam]
Concentration at t = 0 [3]: 5.78 % w/w | % loss [3]: 0% | Concentration at t = 1 year and 20-25 ° C. [3]: 5.77 % w/w

Compound: N#Cc1c[nH]cc1-c1cccc2c1OC(F)(F)O2 [Fludioxonil]
Concentration at t = 0 [3]: 0.955 % w/w | % loss [3]: 1% | Concentration at t = 1 year and 20-25 ° C. [3]: 0.944 % w/w
